Reference: patent publication US20170035793A1, “Use of P2X Purinergic Receptor Agonists to Enhance Insulin Secretion In Pancreatic Beta Cells” (priority 2010, published 2017)
Entries after “also recorded” stand apart in the source; their conditions may differ.

System: human β cells
Test: [Ca2+]i imaging (Fura-2) of glucose-responsive human islet cells
Assay type: cell-based
Details: ATPγS 50 μM
From the text: Islet Isolation. Islets were isolated as previously described (57). Monkey islets were isolated from cynomolgus monkeys (Macacca fascicularis) >4 years of age at the time of pancreas procurement, as previously described (58). Pig pancreata were procured from the local slaughterhouse. Mice (C57BL/6) and rat (Lewis rat; Harlan) islets were isolated using a rodent-islet isolation technique (59). All animal protocols were approved by the University of Miami Care and Use Committee. Human pancreatic islets were obtained from the Human Islet Cell Processing Facility at the Diabetes Research Institute, University of Miami Miller School of Medicine or from the Islet Cell Resource basic science islet distribution program, Islet Cell Resource Centers (ICRs) Consortium, Division of Clinical Research, National Center for Research Resources, National Institutes of Health. Human islets were dissociated into single cells using enzyme-free cell dissociation buffer (Invitrogen). Islets and islets cells from Q:1 all species were cultured identically (37° C. and 5% CO2) inCMRL Q:2 medium-1066 (Invitrogen), niacinamide (10 mM; Sigma), ITS (BD Biosciences), Zn2SO4 (15 μM, Sigma), GlutaMAX (2 mM; Invitrogen), Hepes (25 mM; Sigma), FBS (10%; Invitrogen), and penicillinstreptomycin (100 IU/mL-100 μg/mL; Invitrogen).
[Ca^2+]i; Imaging. [Ca^2+]i imaging was performed as previously described (8, 36). Dispersed islet cells were immersed in Hepes-buffered solution (125 mMNaCl, 5.9 mMKCl, 2.56 mMCaCl2, 1 mMMgCl2, 25 mMHepes, and 0.1% BSA, pH7.4). Glucose was added to give a final concentration of 3 mM. Islets or dispersed islet cells were incubated in Fura-2 AM (2 μM; 1 h) and placed in a closed small volume imaging chamber (Warner Instruments). Stimuli were applied with the bathing solution. Islets loaded with Fura-2 were excited alternatively at 340 and 380 nm with a monochromator light source (Cairn Research Optoscan Monochromator; Cairn Research Ltd). Images were acquired with a Hamamatsu camera (Hamamatsu) attached to a Zeiss Axiovert 200 microscope (Carl Zeiss). Changes in the 340/380 fluorescence emission ratio over time were analyzed in individual islets and dispersed cells using Kinetic Imaging AQM Advance software (Kinetic Imaging). Peak changes in the fluorescence ratio constituted the response amplitude. Beta cells were distinguished from other endocrine cells by their [Ca^2+]i, responses to high glucose concentrations, and alpha cells were identified by their [Ca^2+]i responses to kainate (glutamate receptor agonist) (8, 36).

Nc1ncnc2c1ncn2[C@@H]1O[C@H](COP(=O)(O)OP(=O)(O)OP(=O)(O)O)[C@@H](O)[C@H]1O [ATP] was tested, and the “[Ca2+]i response of β cells to the agonist” value (human β cells identified by response to high glucose (11 or 16 mM), recorded at 3 mM glucose, BzATP 50 μM) was “elicited repeatable [Ca^2+]i responses; also recorded: elicited large insulin and [Ca^2+]i, responses” and the “[Ca2+]i responses to the agonist in the nominal absence of extracellular Ca2+” value (human β cells, nominal 0 Ca2+ (+1 mM EGTA)) was “reduced [Ca^2+]i responses to ATP”.
